In US10131692B2, “Vasopressin-2 receptor agonists” (Ferring B.V., priority 2013, dated 2018):

Assays:
[1] = target: human V2 receptor (h V2R) (Homo sapiens (Human), UniProt P30518); assay: hV2 receptor agonist transcriptional reporter gene (luciferase) assay; type: cell-based; conditions: HEK-293 cells transiently transfected with hV2 receptor, dDAVP internal control
[2] = in vivo; cited from earlier work

Row | % Efficacy hV2-R [1] [%] | Substance | route of clearance from the body [2]
1 | 89 | [Val4]dDAVP [Compound 43] | –
2 | – | [1-deamino, 8-D-arginine]-vasopressin [Compound 42] | cleared from the body primarily by the kidneys
